Laboratory results from publication PMC12892976, “Alkylation-based optimization of antifungal FPPS inhibitors yields a potent, broad-spectrum lipophilic zoledronate derivative” (mBio, 2025).
Read-outs that look alike come from different tables or passages of the source.

Tests used:
[1] = system: Saccharomyces cerevisiae; test: checkerboard drug interaction (FICI, MICc);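 as to all read-outs here: simplified diagonal checkerboard screen pairing antifungals with FPPS inhibitors, FICI calculated under the Loewe additivity model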; assay type: cell-based; design: INH MICc / INH MICc (ITR:INH) / INH MICc (KET:INH) / INH MICc (FLC:INH): unit not given beside the values; conditions: S. cerevisiae; for INH FD (MIC-MICc fold decrease): fold decrease of inhibitor MIC
[2] = system: eight fungal species; test: MIC/MFC summary across the eight fungal species of Table 1; assay type: cell-based
Procedure: The antifungal activity of these compounds was evaluated according to CLSI guidelines ([16]).

[3] = system: Saccharomyces cerevisiae; test: MIC/MFC broth microdilution (CLSI); assay type: cell-based; conditions: Saccharomyces cerevisiae S288c
Procedure: (§1) Antifungal susceptibility was determined by broth microdilution according to the CLSI guidelines described in M27-Ed4 ([16]). […] MFC was determined by back-plating drug-treated cultures from MIC broths onto SDA plates. The MFC was defined as the lowest concentration from which no colonies could be cultured.

[4] = system: eight fungal species; test: checkerboard interaction with azoles, summary across the eight species; assay type: cell-based; conditions: geometric mean MIC in combination with azoles
Excerpt: Synergy between lipophilic FPPS inhibitors and azole antifungals was investigated by determining the fractional inhibitory concentration index (FICI) (Fig. 2; Table S1 Fig. S1) ([17]). […]. Derivatives PLA9 and 11, and PDA9, 11, and 12 antagonized azoles in C. albicans, C. neoformans, and C. deuterogattii, yet were largely synergistic in C. glabrata and S. cerevisiae. […].

[5] = system: Trichophyton rubrum; test: checkerboard drug interaction (FICI, MICc);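 also: simplified diagonal checkerboard screen pairing azole antifungals with FPPS inhibitors, FICI calculated under the Loewe additivity model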; assay type: cell-based; conditions: T. rubrum
Procedure: (§2) Drug interactions between antifungals and FPPS inhibitors were investigated using a simplified checkerboard diagonal screening method ([45]). […] FICIs were determined according to the Loewe additivity model ([17]).

[6] = system: Candida glabrata; test: MIC/MFC broth microdilution (CLSI); conditions: Nakaseomyces glabratus, CBS138;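 also: broth microdilution following CLSI M27-Ed4, MFC taken as the lowest drug level yielding no growth once MIC wells were subcultured on SDA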
Procedure: as §1

[7] = system: Trichophyton rubrum; test: MIC/MFC broth microdilution (CLSI); conditions: Trichophyton rubrum
Procedure: as §1

[8] = system: Aspergillus flavus; test: MIC/MFC broth microdilution (CLSI); conditions: ATCC204304
Procedure: as §1

[9] = system: Candida albicans; test: checkerboard drug interaction (FICI, MICc);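 as to all read-outs here: antifungal plus FPPS inhibitor combinations on Candida albicans tested by a simplified diagonal checkerboard screen, with FICI calculated under the Loewe additivity model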; assay type: cell-based; conditions: C. albicans; for INH FD (MIC-MICc fold decrease): fold decrease of inhibitor MIC
Procedure: as §2

[10] = system: Aspergillus fumigatus; test: checkerboard drug interaction (FICI, MICc);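 as to all read-outs here: simplified diagonal checkerboard screen pairing antifungals with FPPS inhibitors against Aspergillus fumigatus, with FICI calculated under the Loewe additivity model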; assay type: cell-based; conditions: A. fumigatus; for INH FD (MIC-MICc fold decrease): fold decrease of inhibitor MIC
Procedure: as §2

[11] = system: Cryptococcus deuterogattii; test: MIC/MFC broth microdilution (CLSI); conditions: Cryptococcus deuterogattii;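 also: broth microdilution per CLSI M27-Ed4. MFC is the lowest concentration yielding no colonies when MIC broths are subcultured onto SDA plates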
Procedure: as §1

[12] = system: Candida albicans; test: MIC/MFC broth microdilution (CLSI); assay type: cell-based; conditions: Candida albicans SC5314
Procedure: as §1

[13] = system: Aspergillus fumigatus; test: MIC/MFC broth microdilution (CLSI); conditions: ATCC204305
Procedure: as §1

[14] = system: Cryptococcus deuterogattii; test: checkerboard drug interaction (FICI, MICc);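 as to all read-outs here: simplified diagonal checkerboard screen pairing antifungal drugs with FPPS inhibitors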; assay type: cell-based; conditions: C. deuterogattii; for INH FD (MIC-MICc fold decrease): fold decrease of inhibitor MIC
Procedure: as §2

[15] = system: HEK-293T cells; test: MTT reduction cytotoxicity assay; assay type: cell-based; conditions: Homo sapiens, HEK-293T, 72 h, HEK-293T, MTT, 72 h; read-out: HEK IC50
[16] = system: Aspergillus flavus; test: checkerboard drug interaction (FICI, MICc);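 also: simplified diagonal checkerboard screen pairing azole antifungals with FPPS inhibitors, FICI calculated under the Loewe additivity model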; assay type: cell-based; design: INH MICc (KET:INH) / INH MICc (FLC:INH): unit not given beside the values; conditions: A. flavus
[17] = system: Cryptococcus neoformans; test: MIC/MFC broth microdilution (CLSI); conditions: Cryptococcus neoformans;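 also: susceptibility testing followed the CLSI M27-Ed4 broth microdilution document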
Procedure: as §1

[18] = system: Cryptococcus neoformans; test: checkerboard drug interaction (FICI, MICc);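 as to all read-outs here: antifungal plus FPPS inhibitor pairs tested against Cryptococcus neoformans by simplified diagonal checkerboard screening, FICI computed under the Loewe additivity model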; assay type: cell-based; conditions: C. neoformans; for INH FD (MIC-MICc fold decrease): fold decrease of inhibitor MIC
Procedure: as §2

[19] = system: Candida glabrata; test: checkerboard drug interaction (FICI, MICc);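 as to all read-outs here: simplified diagonal checkerboard screen pairing antifungals with FPPS inhibitors, FICI calculated under the Loewe additivity model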; assay type: cell-based; conditions: C. glabrata; for INH FD (MIC-MICc fold decrease): fold decrease of inhibitor MIC
Procedure: as §2

[20] = FLC:INH combination, MIC of FLC in combination with the inhibitor
[21] = FLC:INH combination, MIC of the inhibitor in combination with FLC
[22] = FLC:INH combination, fold decrease of FLC MIC
[23] = ITR:INH combination, MIC of ITR in combination with the inhibitor
[24] = ITR:INH combination, MIC of the inhibitor in combination with ITR
[25] = ITR:INH combination, fold decrease of ITR MIC
[26] = KET:INH combination, MIC of KET in combination with the inhibitor
[27] = KET:INH combination, MIC of the inhibitor in combination with KET
[28] = KET:INH combination, fold decrease of KET MIC
[29] = Fractional Inhibitory Concentration Index, fluconazole + inhibitor
[30] = Fractional Inhibitory Concentration Index, itraconazole + inhibitor
[31] = Fractional Inhibitory Concentration Index, ketoconazole + inhibitor
[32] = MIC of the inhibitor in combination with fluconazole
[33] = MIC of the inhibitor in combination with itraconazole
[34] = MIC of the inhibitor in combination with ketoconazole
[35] = MIC-MICc fold decrease of fluconazole, negative = increase
[36] = MIC-MICc fold decrease of itraconazole, negative = increase
[37] = MIC-MICc fold decrease of ketoconazole, negative = increase
[38] = MIC-MICc fold decrease of the inhibitor, with fluconazole
[39] = MIC-MICc fold decrease of the inhibitor, with itraconazole
[40] = MIC-MICc fold decrease of the inhibitor, with ketoconazole

CCCCCCCCCCCN1CCC[C@H]1C(=O)N[C@@H](CC(=O)O)C(=O)O [PLA11]
FICI ([1]; FLC:INH combination): 0.31
FLC MICc [1, 20]: 1
INH MICc [1, 21]: 16
FLC FD (MIC-MICc fold decrease) [1, 22]: 4
INH FD (MIC-MICc fold decrease) ([1]; FLC:INH combination): 16
FICI ([1]; ITR:INH combination): 0.38
ITR MICc [1, 23]: 0.063
INH MICc [1, 24]: 32
ITR FD (MIC-MICc fold decrease) [1, 25]: 4
INH FD (MIC-MICc fold decrease) ([1]; ITR:INH combination): 8
FICI ([1]; KET:INH combination): 0.28
KET MICc [1, 26]: 0.5
INH MICc [1, 27]: 8
KET FD (MIC-MICc fold decrease) [1, 28]: 4
INH FD (MIC-MICc fold decrease) ([1]; KET:INH combination): 32
MFC ([2]; across eight species, read-out: Geometric mean MFC): > 128 µg/mL
MIC ([2]; geometric mean across eight species, read-out: GM fungal MIC): > 128 µg/mL
MIC ([2]; read-out: Geometric mean MIC): > 128 µg/mL
MFC [3]: > 128 µg/mL
MIC [3]: > 128 µg/mL
GM fungal MICc [4]: 55.4
FICI (FLC:INH) [5, 29]: 3
FICI (ITR:INH) [5, 30]: 2
FICI (KET:INH) [5, 31]: 1.5
INH MICc (FLC:INH) [5, 32]: 256
INH MICc (ITR:INH) [5, 33]: 256
INH MICc (KET:INH) [5, 34]: 128
FLC FD (FLC:INH) [5, 35]: -2
ITR FD (ITR:INH) [5, 36]: 1
KET FD (KET:INH) [5, 37]: 1
INH FD (FLC:INH) [5, 38]: 1
INH FD (ITR:INH) [5, 39]: 1
INH FD (KET:INH) [5, 40]: 2
MFC [6]: > 128 µg/mL
MIC [6]: > 128 µg/mL
MFC [7]: > 128 µg/mL
MIC [7]: > 128 µg/mL
MFC [8]: > 128 µg/mL
MIC [8]: > 128 µg/mL
FICI ([9]; FLC:INH combination): ≥4
INH MICc [9, 21]: 256
FLC FD (MIC-MICc fold decrease) [9, 22]: -4
INH FD (MIC-MICc fold decrease) ([9]; FLC:INH combination): 1
FICI ([9]; ITR:INH combination): ≥4
INH MICc [9, 24]: 256
ITR FD (MIC-MICc fold decrease) [9, 25]: -4
INH FD (MIC-MICc fold decrease) ([9]; ITR:INH combination): 1
FICI ([9]; KET:INH combination): ≥4
INH MICc [9, 27]: 128
KET FD (MIC-MICc fold decrease) [9, 28]: < -4
INH FD (MIC-MICc fold decrease) ([9]; KET:INH combination): 2
FICI ([10]; FLC:INH combination): 2
FLC MICc [10, 20]: 128
INH MICc [10, 21]: 256
FLC FD (MIC-MICc fold decrease) [10, 22]: 1
INH FD (MIC-MICc fold decrease) ([10]; FLC:INH combination): 1
FICI ([10]; ITR:INH combination): 0.51
ITR MICc [10, 23]: 0.063
INH MICc [10, 24]: 2
ITR FD (MIC-MICc fold decrease) [10, 25]: 2
INH FD (MIC-MICc fold decrease) ([10]; ITR:INH combination): 128
FICI ([10]; KET:INH combination): 1.5
KET MICc [10, 26]: 4
INH MICc [10, 27]: 128
KET FD (MIC-MICc fold decrease) [10, 28]: 1
INH FD (MIC-MICc fold decrease) ([10]; KET:INH combination): 2
MFC [11]: > 128 µg/mL
MIC [11]: > 128 µg/mL
MFC [12]: > 128 µg/mL
MIC [12]: > 128 µg/mL
MFC [13]: > 128 µg/mL
MIC [13]: > 128 µg/mL
FICI ([14]; FLC:INH combination): ≥4
INH MICc [14, 21]: 256
FLC FD (MIC-MICc fold decrease) [14, 22]: -4
INH FD (MIC-MICc fold decrease) ([14]; FLC:INH combination): 1
FICI ([14]; ITR:INH combination): ≥4
INH MICc [14, 24]: 128
ITR FD (MIC-MICc fold decrease) [14, 25]: -4
INH FD (MIC-MICc fold decrease) ([14]; ITR:INH combination): 2
FICI ([14]; KET:INH combination): 1
INH MICc [14, 27]: 128
KET FD (MIC-MICc fold decrease) [14, 28]: 2
INH FD (MIC-MICc fold decrease) ([14]; KET:INH combination): 2
IC50 [15]: > 256 µg/mL
FICI (FLC:INH) [16, 29]: 0.75
FICI (ITR:INH) [16, 30]: 0.52
FICI (KET:INH) [16, 31]: 2
INH MICc (FLC:INH) [16, 32]: 64
INH MICc (ITR:INH) [16, 33]: 4
INH MICc (KET:INH) [16, 34]: 256
FLC FD (FLC:INH) [16, 35]: 2
ITR FD (ITR:INH) [16, 36]: 2
KET FD (KET:INH) [16, 37]: 1
INH FD (FLC:INH) [16, 38]: 4
INH FD (ITR:INH) [16, 39]: 64
INH FD (KET:INH) [16, 40]: 1
MFC [17]: > 128 µg/mL
MIC [17]: > 128 µg/mL
FICI ([18]; FLC:INH combination): ≥4
INH MICc [18, 21]: 256
FLC FD (MIC-MICc fold decrease) [18, 22]: < -4
INH FD (MIC-MICc fold decrease) ([18]; FLC:INH combination): 1
FICI ([18]; ITR:INH combination): ≥4
INH MICc [18, 24]: 256
ITR FD (MIC-MICc fold decrease) [18, 25]: < -4
INH FD (MIC-MICc fold decrease) ([18]; ITR:INH combination): 1
FICI ([18]; KET:INH combination): ≥4
INH MICc [18, 27]: 128
KET FD (MIC-MICc fold decrease) [18, 28]: -4
INH FD (MIC-MICc fold decrease) ([18]; KET:INH combination): 2
FICI ([19]; FLC:INH combination): 0.28
INH MICc [19, 21]: 4
FLC FD (MIC-MICc fold decrease) [19, 22]: 4
INH FD (MIC-MICc fold decrease) ([19]; FLC:INH combination): 64
FICI ([19]; ITR:INH combination): 0.27
INH MICc [19, 24]: 2
ITR FD (MIC-MICc fold decrease) [19, 25]: 4
INH FD (MIC-MICc fold decrease) ([19]; ITR:INH combination): 128
FICI ([19]; KET:INH combination): 0.27
INH MICc [19, 27]: 2
KET FD (MIC-MICc fold decrease) [19, 28]: 4
INH FD (MIC-MICc fold decrease) ([19]; KET:INH combination): 128
